# Values quoted from earlier work as cited in patent US11065250B2, “Solid dosage forms of palbociclib” (PFIZER INC., priority 2015, dated 2021).
# Where two headings read alike, the source gives them in different places.
# How the values were obtained:
# [1] = low pH (2.1-4.5)
smiles,measurement,setting,value
"CC(=O)c1c(C)c2cnc(Nc3ccc(N4CCNCC4)cn3)nc2n(C2CCCC2)c1=O [Palbociclib, 6-acetyl-8-cyclopentyl-5-methyl-2-(5-piperazin-1-yl-pyridin-2-ylamino)-8H-pyrido[2,3-d]pyrimidin-7-one]",pKa (pyridine nitrogen),,~4.1
same,pKa (secondary piperazine nitrogen),,approximately 7.3
same,pKa (pyridine nitrogen),listed as palbociclib,approximately 4.1
same,pKa (secondary piperazine nitrogen),listed as palbociclib,~7.3
same,solubility in words,[1],water soluble
